The source of these data is patent US7494714B2, “Surfaces that resist the adsorption of biological species” (President & Fellows of Harvard College, priority 2000, dated 2009).

In series [1] the target is T1, fibrinogen (Bos taurus, UniProt P02672+P02676+P12799).
T1 sequence (P02672 20-615): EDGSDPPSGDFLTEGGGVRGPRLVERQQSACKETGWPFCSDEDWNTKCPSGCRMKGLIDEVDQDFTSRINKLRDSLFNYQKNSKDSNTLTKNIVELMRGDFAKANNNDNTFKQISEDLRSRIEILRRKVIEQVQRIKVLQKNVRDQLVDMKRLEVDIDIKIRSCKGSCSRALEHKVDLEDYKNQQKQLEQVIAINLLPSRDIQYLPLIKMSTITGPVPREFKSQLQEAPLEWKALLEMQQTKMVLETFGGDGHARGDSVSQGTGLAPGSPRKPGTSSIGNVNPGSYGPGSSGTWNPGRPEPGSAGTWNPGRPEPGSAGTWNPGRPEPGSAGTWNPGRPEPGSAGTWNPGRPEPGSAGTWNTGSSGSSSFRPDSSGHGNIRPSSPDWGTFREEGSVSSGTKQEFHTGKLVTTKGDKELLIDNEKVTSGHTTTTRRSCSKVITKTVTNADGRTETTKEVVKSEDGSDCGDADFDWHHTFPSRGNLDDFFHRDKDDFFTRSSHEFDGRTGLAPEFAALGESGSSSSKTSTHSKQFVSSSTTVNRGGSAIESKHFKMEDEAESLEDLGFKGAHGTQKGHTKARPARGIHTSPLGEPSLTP
T1 sequence (P02676 1-468): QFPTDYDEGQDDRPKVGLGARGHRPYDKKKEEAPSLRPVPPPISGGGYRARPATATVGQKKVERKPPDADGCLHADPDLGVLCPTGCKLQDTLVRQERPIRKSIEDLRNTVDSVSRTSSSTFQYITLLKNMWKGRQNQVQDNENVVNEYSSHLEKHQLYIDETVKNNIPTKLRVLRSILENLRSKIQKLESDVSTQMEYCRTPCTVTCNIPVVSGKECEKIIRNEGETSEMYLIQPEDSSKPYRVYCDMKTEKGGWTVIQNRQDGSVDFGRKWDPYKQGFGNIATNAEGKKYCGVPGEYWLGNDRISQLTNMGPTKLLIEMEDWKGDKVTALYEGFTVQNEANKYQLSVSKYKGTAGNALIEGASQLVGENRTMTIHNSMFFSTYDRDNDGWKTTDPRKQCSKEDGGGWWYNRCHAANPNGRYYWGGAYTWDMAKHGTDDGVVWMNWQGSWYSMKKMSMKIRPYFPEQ
T1 sequence (P12799 25-444): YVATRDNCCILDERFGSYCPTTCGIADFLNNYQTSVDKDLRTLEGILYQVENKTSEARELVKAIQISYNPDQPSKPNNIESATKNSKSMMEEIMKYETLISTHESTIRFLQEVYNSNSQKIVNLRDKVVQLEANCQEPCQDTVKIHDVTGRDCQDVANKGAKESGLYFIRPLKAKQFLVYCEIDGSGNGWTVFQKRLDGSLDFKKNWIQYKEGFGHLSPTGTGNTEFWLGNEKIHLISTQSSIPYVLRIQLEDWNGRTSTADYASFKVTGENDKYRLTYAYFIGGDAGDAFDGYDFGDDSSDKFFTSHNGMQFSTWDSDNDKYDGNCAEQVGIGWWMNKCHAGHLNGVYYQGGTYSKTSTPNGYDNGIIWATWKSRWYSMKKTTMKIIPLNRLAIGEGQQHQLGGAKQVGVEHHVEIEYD
In words: SPR adsorption of fibrinogen to SAMs / grafted polymer films. In kind it is binding, bovine. The following applies: for % Fiboff (percent decrease in adsorbed protein during 10 minute PBS wash) / dR/dton fibrinogen (maximum initial rate of adsorption) / % MLfib 3 min / % MLfib 30 min: mixed SAM —CONRR′/—CO2H; for % MLfib 3 min: 1 mg/mL fibrinogen flowed 3 min, relative to —CONH(CH2)10CH3/—CO2H SAM; for % MLfib 30 min: 1 mg/mL fibrinogen flowed 30 min.

Series [2] addresses lysozyme (Gallus gallus, UniProt P00698). The series can be described thus: SPR adsorption of lysozyme to SAMs / grafted polymer films. Format: binding. The following applies: for % Lysoff (percent decrease in adsorbed protein during 10 minute PBS wash) / dR/dton lysozyme (maximum initial rate of adsorption) / % MLlys 3 min / % MLlys 30 min: mixed SAM —CONRR′/—CO2H; for % MLlys 3 min: 1 mg/mL lysozyme flowed 3 min; for % MLlys 30 min: 1 mg/mL lysozyme flowed 30 min.

A short description of series [3]: Contact angle of deionized water under cyclooctane. Format: physicochemical.
The mark [4] stands for this setting: fibrinogen, single-component SAMs (a) and mixed SAMs (b).
The mark [5] stands for this setting: single-component SAMs (a) and mixed SAMs (b).
The mark [6] stands for this setting: lysozyme, single-component SAMs (a) and mixed SAMs (b).

Like-named read-outs stand apart in the source and are kept apart here.

Chain of lysozyme (P00698 19-147): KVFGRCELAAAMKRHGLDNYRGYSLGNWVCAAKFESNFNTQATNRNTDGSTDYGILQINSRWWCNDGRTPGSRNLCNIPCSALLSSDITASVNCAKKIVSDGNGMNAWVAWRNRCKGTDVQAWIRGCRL

As for `CC(=O)CCN`, in series [1], the “% Fiboff (percent decrease in adsorbed protein during 10 minute PBS wash)” value was found to be 16 ± 1%, the “dR/dton fibrinogen (maximum initial rate of adsorption)” value (“dR/dton fibrinogen” below) was 1400 ± 260 RU/sec, the “% MLfib 3 min” value is given as 66 ± 0.3% and the “% MLfib 30 min” value was found to be 74 ± 0.3%. Besides, in series [2], the “% Lysoff (percent decrease in adsorbed protein during 10 minute PBS wash)” value amounted to 150 ± 10%, the “dR/dton lysozyme (maximum initial rate of adsorption)” value (from here on “dR/dton lysozyme”) stood at 2700 ± 400 RU/sec, the “% MLlys 3 min” value came to 31 ± 6% and the “% MLlys 30 min” value is reported as 71 ± 5%. In series [3] (mixed SAM), this compound had a θco sessile of 70 degrees.

As for `CNCCN(C)P(=O)(N(C)C)N(C)C`, in series [1], the “% Fiboff (percent decrease in adsorbed protein during 10 minute PBS wash)” value stood at 19 ± 1%, the “dR/dton fibrinogen” value is recorded as 120 ± 20 RU/sec, the “% MLfib 3 min” value is 0.8 ± 0.1% and the “% MLfib 30 min” value is 4.3 ± 0.6%. Further, in series [2], the “% Lysoff (percent decrease in adsorbed protein during 10 minute PBS wash)” value turned out to be 660 ± 15%, the “dR/dton lysozyme” value turned out to be 70 ± 30 RU/sec, the “% MLlys 3 min” value turned out to be 0.2 ± 0.2% and the “% MLlys 30 min” value was 0.3 ± 0.2%. This compound also displayed a θco sessile in series [3] (mixed SAM) of 63 degrees.

Regarding `CNCCN(C)C`, in series [1], the “% Fiboff (percent decrease in adsorbed protein during 10 minute PBS wash)” value is listed as 13 ± 2%, the “dR/dton fibrinogen” value was 140 ± 40 RU/sec, the “% MLfib 3 min” value is recorded as 23 ± 4% and the “% MLfib 30 min” value turned out to be 40 ± 2%. In series [2], the “% Lysoff (percent decrease in adsorbed protein during 10 minute PBS wash)” value amounted to 300 ± 30%, the “dR/dton lysozyme” value was found to be 400 ± 200 RU/sec, the “% MLlys 3 min” value amounted to 1.9 ± 0.1% and the “% MLlys 30 min” value was found to be 14 ± 2%. Moreover, in series [3] (mixed SAM), the θco sessile stood at 49 degrees.

Turning to `CC(=O)N1CCNCC1`, in series [1] (setting [4]), the “% ML 30 min” value was determined as 38 ±0.2% and the dR/dt on was 120 ±70 RU/sec. Further, the “% ML 3 min” value in series [1] (fibrinogen, single-component SAMs (a, RSH) and mixed SAMs (b, RNH2)) came to 17 ±1%. For the same compound, in series [1], the “% Fiboff (percent decrease in adsorbed protein during 10 minute PBS wash)” value came out at 12 ± 2%, the “dR/dton fibrinogen” value is recorded as 120 ± 70 RU/sec, the “% MLfib 3 min” value was 17 ± 1% and the “% MLfib 30 min” value came to 38 ± 0.2%. Besides, in series [1] (setting [5]), the “% Fib off” value turned out to be 12 ±2%. In series [2] (lysozyme, footnote b (30 minutes), single-component SAMs (a) and mixed SAMs (b)), the “% ML 3 min” value stood at 7 ±0.2%. Also, in series [2] (setting [6]), the “% ML 3 min” value turned out to be 8 ±1% and the dR/dt on worked out at 440 ±80 RU/sec. For the same compound, in series [2], the “% Lysoff (percent decrease in adsorbed protein during 10 minute PBS wash)” value worked out at 400 ± 5%, the “dR/dton lysozyme” value came out at 440 ± 80 RU/sec, the “% MLlys 3 min” value stood at 7.8 ± 1% and the “% MLlys 30 min” value is 6.5 ± 0.2%. The “% Lys off” value in series [2] (setting [5]) worked out at 400 ±5%. The θco sessile in series [3] is recorded as 45 degrees. Moreover, the θco sessile in series [3] (mixed SAM) worked out at 45 degrees.

Regarding `C[N+](C)(C)CCN.[Cl-]`, in series [1], the “% Fiboff (percent decrease in adsorbed protein during 10 minute PBS wash)” value is given as 6.2 ± 1%, the “dR/dton fibrinogen” value was 300 ± 200 RU/sec, the “% MLfib 3 min” value is given as 17 ± 2% and the “% MLfib 30 min” value is 25 ± 4%. Also, in series [2], the “% Lysoff (percent decrease in adsorbed protein during 10 minute PBS wash)” value came to 95 ± 7%, the “dR/dton lysozyme” value came out at 140 ± 40 RU/sec, the “% MLlys 3 min” value turned out to be 3.5 ± 0.2% and the “% MLlys 30 min” value came to 3.9 ± 0.7%. Moreover, the θco sessile in series [3] (mixed SAM) was determined as 31 degrees.

As to `CNCCN(C)C(C)=O`, in series [1], the “% Fiboff (percent decrease in adsorbed protein during 10 minute PBS wash)” value turned out to be 15 ± 1%, the “dR/dton fibrinogen” value came out at 40 ± 10 RU/sec, the “% MLfib 3 min” value turned out to be 2.1 ± 0.3% and the “% MLfib 30 min” value was found to be 12 ± 3%. Also, in series [2], the “% Lysoff (percent decrease in adsorbed protein during 10 minute PBS wash)” value is 330 ± 15%, the “dR/dton lysozyme” value came to 170 ± 30 RU/sec, the “% MLlys 3 min” value amounted to 0.5 ± 0.2% and the “% MLlys 30 min” value turned out to be 3.8 ± 2%. In series [3] (mixed SAM), the θco sessile is 46 degrees.

In the case of `CNCCN(C)C(=O)N(C)C`, in series [1], the “% Fiboff (percent decrease in adsorbed protein during 10 minute PBS wash)” value worked out at 15 ± 2%, the “dR/dton fibrinogen” value is listed as 60 ± 30 RU/sec, the “% MLfib 3 min” value was determined as 5.9 ± 0.2% and the “% MLfib 30 min” value is on record as 25 ± 1%. In addition, in series [2], the “% Lysoff (percent decrease in adsorbed protein during 10 minute PBS wash)” value worked out at 160 ± 10%, the “dR/dton lysozyme” value was found to be 670 ± 50 RU/sec, the “% MLlys 3 min” value turned out to be 2.1 ± 0.2% and the “% MLlys 30 min” value was 11 ± 0.5%. In series [3] (mixed SAM), this compound registered a θco sessile of 62 degrees.

Turning to H(CH3)NCH2CH(OCH3)2, in series [1], the “% Fiboff (percent decrease in adsorbed protein during 10 minute PBS wash)” value was 15 ± 4%, the “dR/dton fibrinogen” value is 510 ± 400 RU/sec, the “% MLfib 3 min” value was 16 ± 2% and the “% MLfib 30 min” value was determined as 36 ± 1%. In addition, in series [2], the “% Lysoff (percent decrease in adsorbed protein during 10 minute PBS wash)” value was 190 ± 2%, the “dR/dton lysozyme” value came out at 740 ± 300 RU/sec, the “% MLlys 3 min” value is reported as 4.6 ± 2% and the “% MLlys 30 min” value is reported as 19 ± 5%. The compound also yielded a θco sessile in series [3] (mixed SAM) of 70 degrees.

For `NC(CCCO)(CCCO)CCCO` [H2NC(CH2CH2CH2OH)3], in series [1], the “% Fiboff (percent decrease in adsorbed protein during 10 minute PBS wash)” value was 14 ± 0.5%, the “dR/dton fibrinogen” value is 350 ± 220 RU/sec, the “% MLfib 3 min” value is on record as 34 ± 2.2% and the “% MLfib 30 min” value was determined as 57 ± 0.2%. For the same compound, in series [2], the “% Lysoff (percent decrease in adsorbed protein during 10 minute PBS wash)” value worked out at 140 ± 2%, the “dR/dton lysozyme” value is 1400 ± 110 RU/sec, the “% MLlys 3 min” value was 30 ± 0.6% and the “% MLlys 30 min” value is 73 ± 5%. The θco sessile in series [3] (mixed SAM) stood at 70 degrees.

Turning to `CNCCN(C)C(=O)OC`, in series [1], the “% Fiboff (percent decrease in adsorbed protein during 10 minute PBS wash)” value is on record as 20 ± 2%, the “dR/dton fibrinogen” value is on record as 330 ± 70 RU/sec, the “% MLfib 3 min” value amounted to 26 ± 0.2% and the “% MLfib 30 min” value was determined as 58 ± 0.3%. Further, in series [2], the “% Lysoff (percent decrease in adsorbed protein during 10 minute PBS wash)” value was determined as 150 ± 2%, the “dR/dton lysozyme” value is reported as 670 ± 50 RU/sec, the “% MLlys 3 min” value is 4.3 ± 0.2% and the “% MLlys 30 min” value was found to be 43 ± 3%. The compound further yielded a θco sessile in series [3] (mixed SAM) of 70 degrees.

For the compound `CN1CCNCC1`, in series [1], the “% Fiboff (percent decrease in adsorbed protein during 10 minute PBS wash)” value is given as 1.0 ± 0.2%, the “dR/dton fibrinogen” value is 50 ± 30 RU/sec, the “% MLfib 3 min” value is 8.2 ± 1% and the “% MLfib 30 min” value came to 16 ± 0.2%. In series [2], the “% Lysoff (percent decrease in adsorbed protein during 10 minute PBS wash)” value was determined as 170 ± 20%, the “dR/dton lysozyme” value is on record as 60 ± 40 RU/sec, the “% MLlys 3 min” value stood at 1.1 ± 0.2% and the “% MLlys 30 min” value came out at 1.0 ± 0.4%. The θco sessile in series [3] (mixed SAM) is recorded as 49 degrees.

`O=CN1CCNCC1`: in series [1], the “% Fiboff (percent decrease in adsorbed protein during 10 minute PBS wash)” value amounted to 10 ± 2%, the “dR/dton fibrinogen” value is listed as 200 ± 50 RU/sec, the “% MLfib 3 min” value is reported as 23 ± 1% and the “% MLfib 30 min” value is listed as 39 ± 1%. Moreover, in series [2], the “% Lysoff (percent decrease in adsorbed protein during 10 minute PBS wash)” value is 73 ± 15%, the “dR/dton lysozyme” value is 160 ± 50 RU/sec, the “% MLlys 3 min” value came out at 8 ± 0.3% and the “% MLlys 30 min” value worked out at 12 ± 0.3%. Also, the θco sessile in series [3] (mixed SAM) was determined as 38 degrees.
